# US6407088B1 (priority 2000, dated 2002)
# Where “and” joins values, the source holds several entries; their conditions need not be identical. Equal values may be shown once. Entries after “also recorded” stand apart in the source; their conditions may differ. Read-outs that look alike come from different tables or passages of the source. Marks after values point to notes of the source that are not given here.
# How the values were obtained:
# [1] = tested on: rabbits' quadriceps femoris muscles
# [2] = tested on: mice; experiment: Analgesic time-effect relation in acetic acid-induced writhing test in mice; format: in vivo; details: for IR, inhibition rate / AWI, average writhing incidence: aspirin ig
# [3] = tested on: monkeys; details: rhesus monkey, in vivo
# [4] = tested on: Rhesus monkeys; details: rhesus monkey, in vivo
# [5] = tested on: mice; details: mouse, in vivo
# [6] = tested on: Kunming mice; experiment: Acetic acid-induced writhing test in mice; format: in vivo
# [7] = target: hPN3 (Homo sapiens, UniProt Q9Y5Y9); details: cited from earlier work
# [8] = tested on: monkeys; details: rhesus monkey, in vivo; remark: listed apart in the source
# [9] = tested on: late term cancer patients; details: human, in vivo
# [10] = tested on: Hartley guinea pigs
# [11] = target: TTX-resistant sodium channel (TTX-R) (Rattus norvegicus, UniProt Q62968); details: cited from earlier work
# [12] = tested on: Kunming mice; details: mouse, in vivo, ip
# [13] = tested on: mouse's marrow cells; details: in vivo
# [14] = tested on: Wistar rats; experiment: Formalin induced inflammation test in rats; details: rat, in vivo
# [15] = tested on: TTX-sensitive sodium channel (TTX-S); details: cited from earlier work
# [16] = tested on: rabbits; parameters: species or system New Zealand white rabbits; details: rabbit, in vivo, iv
# [17] = tested on: 2% red blood cell (RBC) suspension; format: cell-based, rabbit
# [18] = tested on: anesthetized dogs; details: dog, in vivo
# [19] = tested on: Chinese hamster lung (CHL) cells; format: cell-based; details: for Chromosomal aberration rate (%): MMC 0.25 μg/mL, no metabolic activation, P<0.01
# Protocol: The Chinese hamster lung (CHL) cells were exposed to tetrodotoxin at the concentrations of 5.0, 10.0, and 20.0 μg/mL for 24 or 48 hours in the absence of Sg activation and for 6 hours in the presence of S9 activation.
# [20] = tested on: rats; details: rat, in vivo
# [21] = tested on: Shanghai mice; details: mouse, in vivo
# [22] = tested on: Salmonella TA102
# [23] = tested on: Kunming mice; details: mouse, in vivo
# [24] = quadriceps femoris, 1 mL im, 48 hours
# [25] = Aspirin 100 mg/kg, Table 5 (im)
# [26] = Aspirin 200 mg/kg, Table 5 (im)
# [27] = Aspirin 300 mg/kg, Table 5 (im)
# [28] = Aspirin 400 mg/kg, Table 5 (im)
# hPN3, sequence (Q9Y5Y9 whole entry, looked up): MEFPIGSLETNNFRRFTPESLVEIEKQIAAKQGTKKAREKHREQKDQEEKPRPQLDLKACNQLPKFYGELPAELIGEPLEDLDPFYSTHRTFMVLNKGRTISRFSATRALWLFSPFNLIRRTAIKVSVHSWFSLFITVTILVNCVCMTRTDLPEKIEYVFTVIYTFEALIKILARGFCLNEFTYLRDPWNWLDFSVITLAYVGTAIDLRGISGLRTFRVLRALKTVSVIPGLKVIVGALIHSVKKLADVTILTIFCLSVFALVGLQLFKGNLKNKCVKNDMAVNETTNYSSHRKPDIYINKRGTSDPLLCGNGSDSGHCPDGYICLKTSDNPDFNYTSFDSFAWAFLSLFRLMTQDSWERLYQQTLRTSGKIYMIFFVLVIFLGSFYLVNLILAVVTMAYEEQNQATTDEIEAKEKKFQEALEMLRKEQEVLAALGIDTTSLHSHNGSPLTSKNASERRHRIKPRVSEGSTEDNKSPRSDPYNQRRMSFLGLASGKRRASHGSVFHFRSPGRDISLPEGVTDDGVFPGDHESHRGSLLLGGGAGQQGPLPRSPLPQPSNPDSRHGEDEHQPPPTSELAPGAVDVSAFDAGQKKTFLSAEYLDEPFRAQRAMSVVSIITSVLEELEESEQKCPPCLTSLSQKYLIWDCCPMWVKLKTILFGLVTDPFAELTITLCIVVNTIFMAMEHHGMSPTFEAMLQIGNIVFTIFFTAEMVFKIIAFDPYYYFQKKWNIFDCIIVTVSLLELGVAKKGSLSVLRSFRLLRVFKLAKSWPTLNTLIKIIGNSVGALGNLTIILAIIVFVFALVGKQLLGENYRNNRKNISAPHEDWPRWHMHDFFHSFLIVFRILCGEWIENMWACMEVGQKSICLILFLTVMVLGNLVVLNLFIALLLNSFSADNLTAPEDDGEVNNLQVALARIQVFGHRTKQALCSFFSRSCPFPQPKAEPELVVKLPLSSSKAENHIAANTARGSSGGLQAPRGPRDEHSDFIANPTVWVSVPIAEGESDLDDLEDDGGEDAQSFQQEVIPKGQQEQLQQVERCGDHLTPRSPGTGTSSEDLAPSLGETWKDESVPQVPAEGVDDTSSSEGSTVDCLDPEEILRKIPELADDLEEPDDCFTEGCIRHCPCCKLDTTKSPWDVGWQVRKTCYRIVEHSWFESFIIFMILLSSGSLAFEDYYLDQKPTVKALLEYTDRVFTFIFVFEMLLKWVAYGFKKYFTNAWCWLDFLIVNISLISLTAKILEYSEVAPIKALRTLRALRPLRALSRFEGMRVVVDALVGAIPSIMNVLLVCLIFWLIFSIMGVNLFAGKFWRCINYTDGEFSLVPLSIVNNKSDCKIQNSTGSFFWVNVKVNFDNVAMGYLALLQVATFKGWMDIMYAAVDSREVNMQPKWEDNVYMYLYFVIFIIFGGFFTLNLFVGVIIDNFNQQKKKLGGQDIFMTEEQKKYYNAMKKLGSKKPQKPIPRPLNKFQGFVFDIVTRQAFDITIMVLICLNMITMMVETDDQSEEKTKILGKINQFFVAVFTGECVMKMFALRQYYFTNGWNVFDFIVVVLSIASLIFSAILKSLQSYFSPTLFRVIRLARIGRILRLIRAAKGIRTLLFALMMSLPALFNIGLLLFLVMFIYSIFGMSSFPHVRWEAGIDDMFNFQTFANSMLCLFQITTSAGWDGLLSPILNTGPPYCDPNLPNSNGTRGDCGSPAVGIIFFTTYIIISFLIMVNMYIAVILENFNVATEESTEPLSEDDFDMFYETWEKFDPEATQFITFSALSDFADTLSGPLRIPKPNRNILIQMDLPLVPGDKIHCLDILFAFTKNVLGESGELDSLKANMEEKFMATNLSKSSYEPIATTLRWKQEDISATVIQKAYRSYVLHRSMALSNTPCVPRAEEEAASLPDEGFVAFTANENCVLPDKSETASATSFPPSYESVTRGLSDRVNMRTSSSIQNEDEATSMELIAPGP
# TTX-resistant sodium channel (TTX-R), sequence (Q62968 whole entry, looked up): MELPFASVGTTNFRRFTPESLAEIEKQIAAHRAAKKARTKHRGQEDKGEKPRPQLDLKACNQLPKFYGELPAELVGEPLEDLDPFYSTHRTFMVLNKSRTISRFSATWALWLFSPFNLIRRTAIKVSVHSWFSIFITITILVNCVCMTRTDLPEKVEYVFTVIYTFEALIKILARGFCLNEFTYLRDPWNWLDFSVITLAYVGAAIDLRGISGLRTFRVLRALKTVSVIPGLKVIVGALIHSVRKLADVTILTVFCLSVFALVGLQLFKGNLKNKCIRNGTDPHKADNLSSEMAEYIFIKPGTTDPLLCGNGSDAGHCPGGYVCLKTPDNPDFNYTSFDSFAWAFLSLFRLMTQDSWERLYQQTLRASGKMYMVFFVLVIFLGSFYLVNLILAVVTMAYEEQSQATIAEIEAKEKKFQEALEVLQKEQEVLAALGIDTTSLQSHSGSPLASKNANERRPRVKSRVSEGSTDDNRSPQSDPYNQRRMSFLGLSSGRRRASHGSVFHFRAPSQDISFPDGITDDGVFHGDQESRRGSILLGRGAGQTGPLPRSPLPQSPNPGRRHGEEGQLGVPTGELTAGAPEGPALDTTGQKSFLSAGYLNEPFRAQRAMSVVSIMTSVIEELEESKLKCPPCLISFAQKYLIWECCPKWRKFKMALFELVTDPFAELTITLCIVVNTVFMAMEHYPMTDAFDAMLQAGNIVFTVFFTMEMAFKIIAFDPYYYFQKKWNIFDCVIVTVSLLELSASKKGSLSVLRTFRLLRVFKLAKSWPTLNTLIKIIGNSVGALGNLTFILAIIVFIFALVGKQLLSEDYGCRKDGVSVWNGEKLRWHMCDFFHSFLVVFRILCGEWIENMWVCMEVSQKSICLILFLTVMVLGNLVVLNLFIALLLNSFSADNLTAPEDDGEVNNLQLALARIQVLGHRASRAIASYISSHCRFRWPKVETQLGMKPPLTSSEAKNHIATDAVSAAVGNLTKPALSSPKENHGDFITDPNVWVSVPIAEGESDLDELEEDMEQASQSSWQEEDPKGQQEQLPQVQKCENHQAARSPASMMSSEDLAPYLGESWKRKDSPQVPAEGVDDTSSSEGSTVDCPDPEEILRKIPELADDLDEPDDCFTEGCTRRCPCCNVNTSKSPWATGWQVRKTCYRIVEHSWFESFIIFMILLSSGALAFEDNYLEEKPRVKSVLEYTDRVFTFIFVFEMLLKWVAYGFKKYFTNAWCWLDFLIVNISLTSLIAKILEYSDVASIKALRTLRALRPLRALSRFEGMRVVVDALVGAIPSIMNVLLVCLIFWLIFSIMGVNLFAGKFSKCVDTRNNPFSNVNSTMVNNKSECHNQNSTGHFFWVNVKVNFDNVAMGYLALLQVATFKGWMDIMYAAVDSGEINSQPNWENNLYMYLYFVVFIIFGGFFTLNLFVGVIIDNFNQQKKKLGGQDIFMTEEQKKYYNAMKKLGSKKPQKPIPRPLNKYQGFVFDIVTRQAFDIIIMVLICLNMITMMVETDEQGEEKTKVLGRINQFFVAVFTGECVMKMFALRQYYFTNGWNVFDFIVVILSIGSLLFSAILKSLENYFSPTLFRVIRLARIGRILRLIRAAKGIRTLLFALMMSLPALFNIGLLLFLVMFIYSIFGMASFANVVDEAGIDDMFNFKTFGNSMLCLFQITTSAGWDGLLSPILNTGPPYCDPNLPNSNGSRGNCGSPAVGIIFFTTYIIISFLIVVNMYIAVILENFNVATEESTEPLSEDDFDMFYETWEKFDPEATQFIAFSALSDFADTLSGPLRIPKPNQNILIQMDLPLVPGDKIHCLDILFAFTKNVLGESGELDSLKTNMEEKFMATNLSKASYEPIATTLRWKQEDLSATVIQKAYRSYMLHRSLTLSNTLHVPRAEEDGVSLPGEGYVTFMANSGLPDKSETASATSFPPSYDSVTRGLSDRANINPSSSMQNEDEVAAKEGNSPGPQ
molecule,measurement,setting,value
"CC1(C)S[C@@H]2[C@H](NC(=O)Cc3ccccc3)C(=O)N2[C@H]1C(=O)[O-].[K+] [Penicillin G-K, penicillin G-K]","Grade for stimulation reaction, Left side, rabbit 1",[1]; [24],4
same,"Grade for stimulation reaction, Right side, rabbit 1",[1]; [24],4
same,"Grade for stimulation reaction, Right side, rabbit 2",[1]; [24],4
same,"Grade for stimulation reaction, Left side, rabbit 2","[1]; rabbit, in vivo",4
same,Sum of grades,"[1]; two rabbits, both sides",16
"N=C1NC(O)C2C3OC4(O)OC(C(O)C2(N1)C4O)C3(O)CO (centres unmarked) [TTX, octahydro-12-(hydroxymethyl)-2-imino-5,9:7,10a-dimethano-10aH-(1,3)dioxocino(6,5-d)-pyrimidine-4,7,10,11,12-pentol]",duration of analgesic effect,"[2]; mouse, in vivo, sc",about 5 hours
same,onset of therapeutic effect,"[2]; mouse, in vivo, sc",15 min
same,time to peak effect after dosing,"[2]; mouse, in vivo, sc",1 h
same,Body Weight Loss (%),[3],0.4 ± 0.8 %
same,Score of Withdrawal Symptoms,[3],2.6 ± 4.6
same,toxic reaction on dose escalation,[3],significant toxic reaction (vomiting)
same,decrease of AChE activity,[4],41.2%
same,toxic symptoms,[4],evident toxic symptoms
same,Jumping Frequency (X ± SD),[5],0.70 ± 2.70 and 1.30 ± 3.90
same,Jumping Incidence (%),[5]; sc,10.0*# %
same,"analgesic effect, times stronger than meperidine","[6]; mouse, in vivo",670 times
same,IC50,[7],80 µM
same,"Percentage change in body weight, Overall Mean X ± SD",[8],3.2
same,withdrawal symptom score (Mean ± SD),[8],0.0
same,Side Effect(s),[9],"Numbness; also recorded: Numbness,; also recorded: nausea, vomit"
same,addiction or withdrawal,[9],No signs of addiction or withdrawal
same,blood pressure decrease,[9],10-15 mm Hg
same,duration of analgesic effect / total pain relief,[9],20 to 30 days
same,duration of numbness or tingling,[9],at most 30 min
same,"onset of numbness or tingling in lips, tongue tip, fingers and toes",[9],10 to 20 min
same,pain at the conclusion of treatment,[9],entirely eliminated
same,pain intensity of all subjects,[9],reduced to 0 in all but one patient who recorded a 1
same,quality of life interference,[9],0
same,quality of life score,[9],6
same,"time to noticeable pain relief, some subjects",[9],5 min
same,"time to pain relief (various degrees), all subjects",[9],≤ 30 min
same,time to recovery of blood pressure,[9],40 to 50 min
same,time to take effect,[9],5 to 30 min
same,animals with hypersensitive reaction (+),"[10]; guinea pig, in vivo",0/8
same,animals with hypersensitive reaction (++),"[10]; guinea pig, in vivo",0/8
same,animals with hypersensitive reaction (−),"[10]; guinea pig, in vivo",8/8
same,IC50,[11],~100 µM
same,Sleeping time (X ± SD),[12],35.1 ± 26.2 ||| min and 36.3 ± 16.7 ||| min and 26.6 ± 22.5 ||| min
same,micronucleus rate,[13],4.3 ‰
same,"analgesic effect, times stronger than morphine",[14],2900 times
same,"analgesic effect, times stronger than morphine",[14]; sc,3200 times
same,IC50,[15],0.001 to 0.02 µM
same,vascular stimulation,[16],did not produce any pronounced vascular stimulation
same,in vitro haemolyzation,[17],did not induce in vitro haemolyzation
same,"effect on blood pressure, heart rate, electrocardiogram, respiratory rate and depth",[18],did not significantly affect
same,chromosomal aberration rates,[19],0˜2%
same,Score of body weight loss (Mean ± SD),[20],0.00 ± 0.00
same,Score of withdrawal symptoms (Mean ± SD),[20]; sc,0.30 ± 0.90 and 0.20 ± 0.60
same,embryotoxicity or teratogenic action,[21],No embryotoxicity or teratogenic action
O=P1(N(CCCl)CCCl)NCCCO1 (centres unmarked) [cyclophosphamide],Number of Micronucleus cells,[13],279
same,teratogenic rate,"[21]; female, Shanghai",100%
"10% bovine serum albumin: 10% bovine serum albumin solution, positive control in hypersensitivity test",animals with hypersensitive reaction (+),"[10]; (+) scratching nose, pilo-erection, uneasiness, sneezing, shortness of breath, mild cyanosis, animals/8",4/8
same,animals with hypersensitive reaction (++),"[10]; (++) pilo-erection, manifest dyspnea, cyanosis, weakness of limbs, animals/8",3/8
same,animals with hypersensitive reaction (+++),"[10]; (+++) Death, animals/8",1/8
same,animals with hypersensitive reaction (−),"[10]; guinea pig, in vivo",0/8
O=C1c2cccc(O)c2C(=O)c2c(O)cccc21 [DAN],"Number of revertant Salmonella colonies, TA102","[22]; DAN 100.0, +S9",906 ± 69
same,"Number of revertant Salmonella colonies, TA102","[22]; DAN 100.0, −S9",379 ± 99
CC(=O)Oc1ccccc1C(=O)O [Aspirin],duration of analgesic effect,[2]; aspirin 400 mg/kg po,about 2 hours
same,onset of therapeutic effect,[2]; aspirin 400 mg/kg po,20 min
same,time to peak effect after dosing,[2]; aspirin 400 mg/kg po,0.5 h
same,"IR, inhibition rate","[2]; Table 10, 10 min",38.4
same,"IR, inhibition rate","[2]; Table 10, 20 min",41.1
same,"AWI, average writhing incidence","[2]; Table 10, 30 min",1.98
same,"IR, inhibition rate","[2]; Table 10, 30 min",89.2
same,"AWI, average writhing incidence","[2]; Table 10, 40 min",4.8
same,"IR, inhibition rate","[2]; Table 10, 40 min",74.1
same,"AWI, average writhing incidence","[2]; Table 10, 70 min",6.3
same,"IR, inhibition rate","[2]; Table 10, 70 min",65.9
same,"IR, inhibition rate","[2]; Table 10, 100 min",37.1
same,"IR, inhibition rate","[2]; Table 10, 130 min",36.2
same,"AWI, average writhing incidence","[2]; Table 12 (NS 28.2 ± 14.3), 10 min after dosing",19.5
same,"IR, inhibition rate","[2]; Table 12, 10 min",30.8
same,"AWI, average writhing incidence","[2]; Table 12, 20 min",17.7
same,"IR, inhibition rate","[2]; Table 12, 20 min",37.2
same,"AWI, average writhing incidence","[2]; Table 12, 30 min",5.5
same,"IR, inhibition rate","[2]; Table 12, 30 min",80.6
same,"AWI, average writhing incidence","[2]; Table 12, 45 min",8.2
same,"IR, inhibition rate","[2]; Table 12, 45 min",70.9
same,"AWI, average writhing incidence","[2]; Table 12, 60 min",10.2
same,"IR, inhibition rate","[2]; Table 12, 60 min",63.8
same,"AWI, average writhing incidence","[2]; Table 12, 90 min",14.4
same,"IR, inhibition rate","[2]; Table 12, 90 min",49.0
same,"AWI, average writhing incidence","[2]; Table 12, 120 min",19.3
same,"IR, inhibition rate","[2]; Table 12, 120 min",31.6
same,"AWI, average writhing incidence","[2]; Table 12, 150 min",22.8
same,"IR, inhibition rate","[2]; Table 12, 150 min",19.3
same,Percentage of inhibition (%),"[6]; Aspirin 100 mg/kg, Table 4 (sc)",18.9%
same,Average Writhing Incidents,[6]; [25],22.1
same,Inhibition Rate %,[6]; [25],21.7%
same,Percentage of inhibition (%),"[6]; Aspirin 200 mg/kg, Table 4 (sc)",46.2%
same,Average Writhing Incidents,[6]; [26],14.3
same,Inhibition Rate %,[6]; [26],49.3%
same,Percentage of inhibition (%),"[6]; Aspirin 300 mg/kg, Table 4 (sc)",69.4%
same,Average Writhing Incidents,[6]; [27],7.2
same,Inhibition Rate %,[6]; [27],74.4%
same,Percentage of inhibition (%),"[6]; Aspirin 400 mg/kg, Table 4 (sc)",85.4%
same,Average Writhing Incidents,[6]; [28],2.7
same,Inhibition Rate %,[6]; [28],90.6%
same,ID50 and 95% Confidence Interval,"[6]; Aspirin, Table 4 (sc)",198.8 mg/kg
same,ID50 (95% Confidence Interval),"[6]; Aspirin, Table 5 (im)",183.8 mg/kg
Cn1c(=O)c2c(ncn2C)n(C)c1=O [Caffeine],Number of autonomic mobility (X ± SD),[23],777 ± 178 •••
CCOC(=O)C1(c2ccccc2)CCN(C)CC1 [Meperidine],ID50 and 95% Confidence Interval,"[6]; mouse, in vivo, sc",1.8 mg/kg
CO[C@@]12[C@H](COC(N)=O)C3=C(C(=O)C(C)=C(N)C3=O)N1C[C@@H]1N[C@@H]12 [MMC],Chromosomal aberration rate (%),[19]; 24 hours,72%
same,Chromosomal aberration rate (%),[19]; 48 hours,99%
